Measurements as given in US20110229571A1, “Pharmaceutical Compositions Comprising a Selective I1 Imidazoline Receptor Agonist and an Angiotensin II Receptor Blocker” (Abbott Products GmbH, priority 2003, published 2011).

What was measured:
[1] = test system: 2K1C (two-kidney one-clip) hypertensive rats; test: Blood pressure and heart rate (tail cuff) of two-kidney one-clip renal hypertensive rats after oral treatment; format: in vivo, rat; details: for diastolic blood pressure (DBP) / mean blood pressure (MBP) / systolic blood pressure (SBP) / heart rate: Mox 1 mg/kg, Epro 3 mg/kg or both; for diastolic blood pressure (DBP) / mean blood pressure (MBP) / systolic blood pressure (SBP): mean ± SE of 12 animals; for heart rate: n 12; for maximal decrease in the diastolic blood pressure / maximal decrease in the systolic blood pressure: maximal effect 2 hours after oral administration, moxonidine 1 mg/kg or eprosartan 3 mg/kg; for effect on blood pressure (in words): oral, moxonidine 1 mg/kg, eprosartan 3 mg/kg or both
Text: The “two-kidney one-clip” technique results in renal ischemia and in the development of hypertension. In the rat, this technique produces chronic changes, similar to those in human beings with unilateral renal artery stenosis. 2K1C rats represent a pressure overload model of hypertension, characterized by the activation of the renin-angiotensin aldosterone system (RAAS) and peripheral vasoconstriction. This model is widely used as a high renin model of hypertension for the evaluation of angiotensin converting enzyme (ACE) inhibitors and angiotensin receptor antagonists (ARBs). Animals: Male Sprague-Dawley CFY rats were used. Animals were fed commercial laboratory rat food pellet and allowed to drink tap water ad libitum throughout the experiments. Two-kidney one-clip hypertension: Under ether anesthesia an incision was made on the right side of the dorsalvertebrocostal angle. After light exterioration of the right kidney a silver clip was placed on the renal artery, close to its origin from the aorta. The left kidney was not disturbed. Measurement of blood pressure and heart rate: Blood pressure and heart rate were measured by the tail cuff method (Model 229, IITC Inc., CA, USA) from the 1st week after clipping the renal artery, once a week for 6 weeks. At the time of blood pressure measurements the animals were minimally warmed to an ambient temperature of 29° C. using a thermostated warming chamber. Experimental protocol: Animals developing stable hypertension during the 6-week-study period were used for the drug treatments. 12 animals with established hypertension were used for each treatment group as follows: • Vehicle • Moxonidine 1 mg/kg • Eprosartan 3 mg/kg • Moxonidine 1 mg/kg+Eprosartan 3 mg/kg The animals were treated orally and the blood pressure was measured 30 min, 1 h, 2 h and 4 hours there after. Different treatments were applied randomly during the day. Statistical analysis: Parameters were expressed as mean±standard error of the mean (SE) and after analysis of variance were compared by means of the modified ‘t’-statistical method of Wallenstein et al. [Wallenstein S et al. (1980) Circ. Res. 47:1-9].

Zucker rats = test: Oral glucose tolerance test in Zucker rats after 3 weeks of treatment; format: in vivo, rat
Description: The effect of a combined administration of Moxonidine as an example for a selective Imidazoline I1 receptor agonist and Eprosartan as an example for an Angiotensin II At1 receptor antagonist was analyzed by measuring their influence on plasma glucose level in “Zucker rats”. The “Zucker rat” is a model of impaired glucose tolerance and is widely used to analyze compound effects on glucose tolerance. Animals: Male Zucker rats (HsdOla fa/fa) from Harlan were used in the experiments. The animals were fed commercial lab chow and had unlimited access to tap water throughout the experiment. Experimental protocol: Animals were treated for 3 weeks with either vehicle or the active compounds. Moxonidine was applied via the drinking water. Eprosartan was administered daily into the stomach via a cannula. Ten animals were used in each of the following treatment groups: • Vehicle • Moxonidine 1 mg/kg • Moxonidine 1 mg/kg+Eprosartan 3 mg/kg • Moxonidine 1 mg/kg+Eprosartan 30 mg/kg • Moxonidine 1 mg/kg+Eprosartan 100 mg/kg At the end of the drug treatment period the animals were subjected to an oral glucose tolerance test. Animals were given a solution containing 2 g glucose via a cannula into the stomach. Blood samples were drawn before and at 30, 60, 90, and 120 minutes after the glucose load by tail vein cannulation and analyzed for plasma glucose levels. Statistical analysis: Parameters were expressed as mean±standard error of the mean (SE) and after analysis of variance were compared by means of T-Test.

[2] = 30 min after oral administration

Row | SMILES | diastolic blood pressure (DBP) [1, 2] [mmHg] | mean blood pressure (MBP) [1, 2] [mmHg] | systolic blood pressure (SBP) [1, 2] [mmHg] | heart rate [1, 2] [beats/min] | diastolic blood pressure (DBP) ([1]; 1 h after oral administration) [mmHg] | mean blood pressure (MBP) ([1]; 1 h after oral administration) [mmHg] | systolic blood pressure (SBP) ([1]; 1 h after oral administration) [mmHg] | heart rate ([1]; 1 h after oral administration) [beats/min] | diastolic blood pressure (DBP) ([1]; 2 h after oral administration) [mmHg] | mean blood pressure (MBP) ([1]; 2 h after oral administration) [mmHg] | systolic blood pressure (SBP) ([1]; 2 h after oral administration) [mmHg] | heart rate ([1]; 2 h after oral administration) [beats/min] | diastolic blood pressure (DBP) ([1]; 4 h after oral administration) [mmHg] | mean blood pressure (MBP) ([1]; 4 h after oral administration) [mmHg] | systolic blood pressure (SBP) ([1]; 4 h after oral administration) [mmHg] | heart rate ([1]; 4 h after oral administration) [beats/min] | maximal decrease in the diastolic blood pressure [1] [%] | maximal decrease in the systolic blood pressure [1] [%] | effect on blood pressure (in words) [1] | further results
1 | CCCCc1ncc(/C=C(\Cc2cccs2)C(=O)O)n1Cc1ccc(C(=O)O)cc1 [Eprosartan] | 111 ± 2.8 | 117 ± 2.8 | 131 ± 2.8 | 370 ± 6.9 | 109 ± 2.3 | 116 ± 2.5 | 131 ± 3.1 | 375 ± 7.4 | 98 ± 4.8 | 105 ± 4.6 | 119 ± 4.5 | 378 ± 4.3 | 106 ± 6.6 | 112 ± 6.6 | 125 ± 6.1 | 376 ± 5.2 | 21 | 19 | significantly decreased the blood pressure | 
2 | COc1nc(C)nc(Cl)c1NC1=NCCN1 [Moxonidine, 4-Chloro-5-[(4,5-dihydro-1H-imidazol-2-yl)-amino]-6-methoxy-2-methylpyrimidine] | 118 ± 3.1 | 124 ± 3.2 | 136 ± 3.6 | 383 ± 5.3 | 110 ± 3.3 | 117 ± 2.6 | 130 ± 2.1 | 376 ± 6.7 | 100 ± 4.8 | 107 ± 4.2 | 122 ± 3.5 | 368 ± 5.9 | 109 ± 3.8 | 116 ± 3.5 | 129 ± 3.1 | 384 ± 6.0 | 19 | 16 | significantly decreased the blood pressure | plasma glucose level (Zucker rats; 0 min (before glucose challenge), 1 mg/kg Mox, mean ± SE of 10 animals): 97 ± 6 mg/dL; plasma glucose AUC (area under the curve) (Zucker rats; 0-120 min after glucose challenge, 1 mg/kg Mox): 24960 ± 1268 mg·min/dL; plasma glucose level (Zucker rats; 30 min after glucose challenge, 1 mg/kg Mox): 240 ± 15 mg/dL; plasma glucose level (Zucker rats; 60 min after glucose challenge, 1 mg/kg Mox): 211 ± 15 mg/dL; plasma glucose level (Zucker rats; 90 min after glucose challenge, 1 mg/kg Mox): 221 ± 11 mg/dL; plasma glucose level (Zucker rats; 120 min after glucose challenge, 1 mg/kg Mox): 224 ± 14 mg/dL; effect on plasma glucose levels after oral glucose challenge (in words) (Zucker rats; Moxonidine 1 mg/kg alone or with Eprosartan 3, 30, 100 mg/kg): significant reduction in plasma glucose levels at 60 and 90 minutes
